A short description of test [1]: Selectivity ratio as antilogarithm of smallest difference between the pKi value at 5-HT6 receptor and range of comparator receptors.
Test [2] addresses T1, 5-hydroxytryptamine receptor 6 (Homo sapiens, UniProt P50406). The experiment in a line: Binding affinity against human 5-hydroxytryptamine 6 receptor.
For test [3], the target named is 5-hydroxytryptamine receptor 2A (Homo sapiens, UniProt P28223). The experiment in a line: Binding affinity to human cloned 5-hydroxytryptamine 2A receptor in HEK 293 cells using [3H]- ketanserin as radioligand. It is filed as cell-based, HEK293.
The target of a further test is D(3) dopamine receptor (Homo sapiens, UniProt P35462). The test is described as follows: Binding affinity to human cloned Dopamine receptor D3 in CHO cells using [125I]- iodosulpride as radioligand. It is filed as cell-based.
Test [4] concerns the target T2, 5-hydroxytryptamine receptor 2C (Homo sapiens, UniProt P28335).
T2 sequence (P28335 whole entry): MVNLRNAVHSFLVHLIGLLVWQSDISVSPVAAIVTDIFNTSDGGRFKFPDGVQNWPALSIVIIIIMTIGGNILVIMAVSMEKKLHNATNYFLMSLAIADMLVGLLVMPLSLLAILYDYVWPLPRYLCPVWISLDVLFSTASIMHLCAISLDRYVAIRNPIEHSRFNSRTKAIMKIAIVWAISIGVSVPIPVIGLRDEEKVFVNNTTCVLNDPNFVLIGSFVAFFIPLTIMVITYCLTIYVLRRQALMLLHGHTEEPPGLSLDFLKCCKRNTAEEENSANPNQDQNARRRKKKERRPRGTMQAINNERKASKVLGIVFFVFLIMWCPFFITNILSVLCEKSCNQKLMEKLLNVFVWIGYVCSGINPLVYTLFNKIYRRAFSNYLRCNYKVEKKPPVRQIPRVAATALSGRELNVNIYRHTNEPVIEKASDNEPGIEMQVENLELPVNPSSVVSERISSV
The experiment in a line: Binding affinity to human cloned 5-hydroxytryptamine 2C receptor in HEK 293 cells using [3H]- mesulergine as radioligand. In kind it is cell-based, HEK293.

In test [5] the target is 5-hydroxytryptamine receptor 1D (Homo sapiens, UniProt P28221). The experiment in a line: Binding affinity to human cloned 5-hydroxytryptamine 1D receptor in CHO cells using [3H]5-HT as radioligand. In kind it is cell-based.
Test [6] concerns the target 5-hydroxytryptamine receptor 2B (Homo sapiens, UniProt P41595). The experiment in a line: Binding affinity to human cloned 5-HT2B receptor in HEK 293 cells using [3H]- -5-HT as radioligand. In kind it is cell-based, HEK293.
Test [7] deals with T3, 5-hydroxytryptamine receptor 1A (Homo sapiens, UniProt P08908).
T3 sequence (P08908 whole entry): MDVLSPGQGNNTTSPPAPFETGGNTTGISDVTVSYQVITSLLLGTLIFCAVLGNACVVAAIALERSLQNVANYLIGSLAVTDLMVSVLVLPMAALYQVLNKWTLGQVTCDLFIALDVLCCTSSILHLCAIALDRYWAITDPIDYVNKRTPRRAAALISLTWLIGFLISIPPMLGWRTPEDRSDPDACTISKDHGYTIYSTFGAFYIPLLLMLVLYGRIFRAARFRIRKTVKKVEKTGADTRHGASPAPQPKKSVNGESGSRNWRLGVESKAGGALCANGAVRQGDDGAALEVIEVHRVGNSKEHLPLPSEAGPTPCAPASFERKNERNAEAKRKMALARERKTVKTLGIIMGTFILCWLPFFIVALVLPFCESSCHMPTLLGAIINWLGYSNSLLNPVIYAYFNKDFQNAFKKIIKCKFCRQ
The experiment in a line: Binding affinity to human cloned 5-hydroxytryptamine 1A receptor in HEK 293 cells using [3H]-8-OH- DPAT as radioligand. In kind it is cell-based, HEK293.

Test [8] deals with 5-hydroxytryptamine receptor 1B (Homo sapiens, UniProt P28222). The experiment in a line: Binding affinity to human cloned 5-hydroxytryptamine 1B receptor in CHO cells using [3H]5-HT as radioligand. In kind it is cell-based.
Test [9] concerns the target T1, 5-hydroxytryptamine receptor 6. The test is described as follows: Binding affinity to human cloned 5-hydroxytryptamine 6 receptor in HeLa cells using [3H]- LSD as radioligand. In kind it is cell-based.
Another test has as its target D(2) dopamine receptor (Homo sapiens, UniProt P14416). The experiment in a line: Binding affinity to human cloned Dopamine receptor D2 in CHO cells using [125I]- iodosulpride as radioligand. It is filed as cell-based.
In test [10] the target is 5-hydroxytryptamine receptor 7 (Homo sapiens, UniProt P34969). The test is described as follows: Binding affinity to human cloned 5-hydroxytryptamine 7 receptor in HEK 293 cells using [3H]-5-CT as radioligand. It is filed as cell-based, HEK293.
For test [11], the target named is T1, 5-hydroxytryptamine receptor 6. The experiment in a line: Binding affinity to human cloned 5-HT6 receptor in HeLa cells using [3H]- LSD as radioligand. It is filed as cell-based.

Chain of 5-hydroxytryptamine receptor 1B (P28222 whole entry): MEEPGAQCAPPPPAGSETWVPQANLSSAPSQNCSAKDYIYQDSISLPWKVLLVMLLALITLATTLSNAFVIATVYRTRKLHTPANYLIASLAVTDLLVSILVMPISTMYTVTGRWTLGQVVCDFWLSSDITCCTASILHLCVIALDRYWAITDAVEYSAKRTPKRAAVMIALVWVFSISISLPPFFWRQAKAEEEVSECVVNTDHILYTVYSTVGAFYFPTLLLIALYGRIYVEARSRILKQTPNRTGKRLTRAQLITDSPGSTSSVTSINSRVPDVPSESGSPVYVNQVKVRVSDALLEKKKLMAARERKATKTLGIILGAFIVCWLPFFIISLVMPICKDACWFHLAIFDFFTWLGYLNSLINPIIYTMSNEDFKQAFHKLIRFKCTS
Chain of 5-hydroxytryptamine receptor 2B (P41595 whole entry): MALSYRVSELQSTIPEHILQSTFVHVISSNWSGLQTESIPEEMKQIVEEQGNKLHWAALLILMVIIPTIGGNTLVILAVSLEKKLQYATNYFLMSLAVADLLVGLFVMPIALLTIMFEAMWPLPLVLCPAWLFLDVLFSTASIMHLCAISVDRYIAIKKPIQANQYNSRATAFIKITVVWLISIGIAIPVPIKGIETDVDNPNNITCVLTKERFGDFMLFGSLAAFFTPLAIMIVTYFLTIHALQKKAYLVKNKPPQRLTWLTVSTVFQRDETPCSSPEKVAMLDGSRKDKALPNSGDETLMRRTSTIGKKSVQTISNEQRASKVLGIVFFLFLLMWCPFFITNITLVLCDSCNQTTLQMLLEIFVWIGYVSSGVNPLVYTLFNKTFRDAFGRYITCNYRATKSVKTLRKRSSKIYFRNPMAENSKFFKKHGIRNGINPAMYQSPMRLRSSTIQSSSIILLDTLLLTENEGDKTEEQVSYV
Chain of D(3) dopamine receptor (P35462 whole entry): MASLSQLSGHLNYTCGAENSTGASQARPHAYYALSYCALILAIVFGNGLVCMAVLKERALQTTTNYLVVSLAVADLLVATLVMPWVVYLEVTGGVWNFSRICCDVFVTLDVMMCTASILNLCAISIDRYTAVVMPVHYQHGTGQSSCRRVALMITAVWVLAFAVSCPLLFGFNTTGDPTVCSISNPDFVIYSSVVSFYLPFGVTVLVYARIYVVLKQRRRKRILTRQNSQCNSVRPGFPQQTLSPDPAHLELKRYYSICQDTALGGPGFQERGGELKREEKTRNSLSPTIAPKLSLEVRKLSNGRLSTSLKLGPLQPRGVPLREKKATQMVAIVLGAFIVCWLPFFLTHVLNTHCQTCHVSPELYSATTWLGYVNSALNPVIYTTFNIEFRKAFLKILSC
Chain of 5-hydroxytryptamine receptor 7 (P34969 whole entry): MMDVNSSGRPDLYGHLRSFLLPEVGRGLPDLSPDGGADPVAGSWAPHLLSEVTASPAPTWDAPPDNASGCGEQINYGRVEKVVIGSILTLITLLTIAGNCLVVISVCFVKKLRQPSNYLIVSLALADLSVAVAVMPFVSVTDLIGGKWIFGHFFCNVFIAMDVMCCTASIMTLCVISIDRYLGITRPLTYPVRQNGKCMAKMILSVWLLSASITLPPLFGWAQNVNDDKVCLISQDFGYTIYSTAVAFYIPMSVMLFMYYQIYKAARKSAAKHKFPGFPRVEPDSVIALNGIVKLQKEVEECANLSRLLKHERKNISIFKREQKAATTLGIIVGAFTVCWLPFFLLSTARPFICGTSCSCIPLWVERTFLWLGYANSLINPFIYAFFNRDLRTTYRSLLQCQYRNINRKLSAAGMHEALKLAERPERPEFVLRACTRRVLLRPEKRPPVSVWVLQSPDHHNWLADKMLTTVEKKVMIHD
Chain of 5-hydroxytryptamine receptor 2A (P28223 whole entry): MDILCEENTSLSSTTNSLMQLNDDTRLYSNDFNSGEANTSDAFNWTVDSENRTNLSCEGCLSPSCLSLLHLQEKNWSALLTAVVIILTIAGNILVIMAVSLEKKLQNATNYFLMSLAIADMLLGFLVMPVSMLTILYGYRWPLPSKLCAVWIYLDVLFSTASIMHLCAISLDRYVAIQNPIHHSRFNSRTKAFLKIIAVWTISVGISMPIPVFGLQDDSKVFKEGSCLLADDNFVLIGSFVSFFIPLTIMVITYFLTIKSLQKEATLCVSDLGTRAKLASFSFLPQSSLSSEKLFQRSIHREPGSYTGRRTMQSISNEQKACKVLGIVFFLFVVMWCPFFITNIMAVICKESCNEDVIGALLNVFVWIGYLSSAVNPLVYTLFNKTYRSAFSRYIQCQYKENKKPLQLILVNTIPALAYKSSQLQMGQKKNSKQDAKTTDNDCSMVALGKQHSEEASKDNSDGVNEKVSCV
Chain of 5-hydroxytryptamine receptor 1D (P28221 whole entry): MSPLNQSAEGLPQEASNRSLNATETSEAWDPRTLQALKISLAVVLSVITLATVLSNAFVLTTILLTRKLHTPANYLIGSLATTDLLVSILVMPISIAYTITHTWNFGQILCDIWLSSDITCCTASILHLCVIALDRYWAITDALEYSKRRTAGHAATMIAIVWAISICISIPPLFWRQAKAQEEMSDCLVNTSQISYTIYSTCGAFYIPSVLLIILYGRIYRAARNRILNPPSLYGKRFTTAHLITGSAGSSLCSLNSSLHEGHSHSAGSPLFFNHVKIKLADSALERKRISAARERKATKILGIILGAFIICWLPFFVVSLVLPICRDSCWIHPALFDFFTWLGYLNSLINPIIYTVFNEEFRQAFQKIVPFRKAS
Chain of D(2) dopamine receptor (P14416 whole entry): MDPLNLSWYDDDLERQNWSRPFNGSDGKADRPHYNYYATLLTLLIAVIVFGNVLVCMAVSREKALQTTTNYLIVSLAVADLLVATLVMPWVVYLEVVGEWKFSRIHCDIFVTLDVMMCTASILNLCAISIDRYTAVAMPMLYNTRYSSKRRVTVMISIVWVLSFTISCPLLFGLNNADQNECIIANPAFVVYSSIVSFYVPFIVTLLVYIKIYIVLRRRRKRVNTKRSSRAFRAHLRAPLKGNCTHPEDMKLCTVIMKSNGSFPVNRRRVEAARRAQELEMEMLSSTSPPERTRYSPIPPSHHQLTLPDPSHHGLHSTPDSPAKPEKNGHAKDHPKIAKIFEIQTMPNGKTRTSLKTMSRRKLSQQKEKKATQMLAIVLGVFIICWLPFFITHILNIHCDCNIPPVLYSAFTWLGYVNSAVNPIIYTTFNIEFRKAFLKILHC
T1 sequence (P50406 whole entry): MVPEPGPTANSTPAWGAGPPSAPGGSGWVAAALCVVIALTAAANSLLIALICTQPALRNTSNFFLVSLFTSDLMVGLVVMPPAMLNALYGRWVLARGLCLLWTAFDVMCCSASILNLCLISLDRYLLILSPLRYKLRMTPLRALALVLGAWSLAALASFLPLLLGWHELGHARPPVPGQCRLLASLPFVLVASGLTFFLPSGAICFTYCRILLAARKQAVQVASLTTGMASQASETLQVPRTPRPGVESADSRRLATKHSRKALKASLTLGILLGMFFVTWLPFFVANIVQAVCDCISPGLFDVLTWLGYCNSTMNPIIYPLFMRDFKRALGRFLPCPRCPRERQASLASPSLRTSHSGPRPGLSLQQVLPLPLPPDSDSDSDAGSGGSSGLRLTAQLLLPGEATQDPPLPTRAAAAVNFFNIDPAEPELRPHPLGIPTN

With `CC(C)c1c(S(=O)(=O)Nc2ccc3nccc(N4CCNCC4)c3c2)sc2ccc(Cl)cc12`, in [1], the Selectivity ratio amounted to 160. Also, affinity in test [2] was put at a Ki of 1.58 nM.
Regarding `Cc1sc2cc(Cl)cc(Cl)c2c1S(=O)(=O)Nc1ccc2nccc(N3CCNCC3)c2c1`, in [1], the Selectivity ratio stood at 40. For the same compound, the Ki (as a rule, a measure of affinity in units of concentration, obtained from inhibition or displacement) in [2] is 7.94 nM.
Take `Cc1sc2c(Cl)cccc2c1S(=O)(=O)Nc1ccc2nccc(N3CCNCC3)c2c1`: the Selectivity ratio in test [1] was determined as 130. Besides, affinity in [2] was put at a Ki of 2 nM.
In the case of `O=S(=O)(Nc1ccc2nccc(N3CCNCC3)c2c1)c1ccc(I)cc1`, the Selectivity ratio in [1] amounted to 100. Further, affinity in [2] was put at a Ki of 1.58 nM.
On to `CC(C)(C)c1ccc(S(=O)(=O)Nc2ccc3nccc(N4CCNCC4)c3c2)cc1`, for which the inhibition constant (Ki) is more than 3160 nM in test [3]; more than 5010 nM on D(3) dopamine receptor; 0.631 nM in test [2]; more than 2000 nM in test [4]; 1260 nM in test [5]; more than 5010 nM in test [6]. In addition, the inhibitory constant (Ki) was 794 nM in test [7]; 1580 nM in [8]; 0.631 nM in test [9]; more than 10000 nM at D(2) dopamine receptor; more than 10000 nM in test [10]. The Selectivity ratio in test [1] was found to be 1260.
Take `CCc1c(S(=O)(=O)Nc2ccc3nccc(N4CCNCC4)c3c2)sc2ccc(Cl)cc12`: the Ki in [3] is more than 1260 nM; on D(3) dopamine receptor, more than 10000 nM; in [11], 1.26 nM; in test [2], 1.26 nM; in test [4], 1260 nM; in test [5] it was 2510 nM. For the same compound, the inhibition constant Ki is more than 3980 nM in test [6]; more than 3980 nM in [7]; 3160 nM in [8]; more than 1000 nM at D(2) dopamine receptor; more than 5010 nM in test [10]. The Selectivity ratio in test [1] was found to be 1000.
In the case of `Cc1c(S(=O)(=O)Nc2ccc3nccc(N4CCN(C)CC4)c3c2)sc2ccc(Cl)cc12`, the Ki was 1000 nM in test [3]; more than 3980 nM on D(3) dopamine receptor; 1 nM in test [11]; 1 nM in test [2]; more than 5010 nM in test [4]; 251 nM in test [5]. Besides, the inhibitory constant (Ki) is more than 10000 nM in [6]; 794 nM in [7]; 501 nM in [8]; more than 7940 nM at D(2) dopamine receptor; 2000 nM in test [10]. In addition, the Selectivity ratio in test [1] was 250.
As to `Cc1cc(N2CCNCC2)c2cc(NS(=O)(=O)c3sc4ccc(Cl)cc4c3C)ccc2n1`, the inhibition constant (Ki) in [3] is more than 2000 nM; at D(3) dopamine receptor, more than 1000 nM; in test [11], 1.26 nM; in test [2] it was 1.26 nM; in test [4], 2510 nM; in test [5], 316 nM. In addition, the Ki in [6] was more than 7940 nM; in [7], 794 nM; in test [8], 1260 nM; on D(2) dopamine receptor it was more than 6310 nM; in [10], more than 5010 nM. Also, the Selectivity ratio in test [1] was 250.
Consider `Cc1sc2c(Cl)cc(Cl)cc2c1S(=O)(=O)Nc1ccc2nccc(N3CCNCC3)c2c1`, for which the Selectivity ratio in test [1] came to 200. In test [2], the Ki is 2 nM.
`O=S(=O)(Nc1ccc2nccc(N3CCNCC3)c2c1)c1cc(Cl)cc(Cl)c1` had an inhibition constant (Ki) in test [2] of 25.1 nM.
Turning to `Cc1c(S(=O)(=O)Nc2ccc3nccc(N4CCN[C@H](C)C4)c3c2)sc2ccc(Cl)cc12`, in [1], the Selectivity ratio amounted to 3200. This compound also had an inhibitory constant (Ki) in test [2] of 2 nM.
Regarding `O=S(=O)(Nc1ccc2nccc(N3CCNCC3)c2c1)c1ccc(-c2ccccc2)cc1`, the Ki was 501 nM in test [3]; more than 3160 nM on D(3) dopamine receptor; 0.501 nM in test [11]; 0.501 nM in test [2]; 158 nM in [5]; more than 7940 nM in [6]. The inhibitory constant (Ki) in test [7] is 631 nM; in [8], 316 nM; at D(2) dopamine receptor, more than 5010 nM; in [10] it was more than 10000 nM. Besides, the Selectivity ratio in test [1] was 320.
Take `Cc1c(S(=O)(=O)Nc2ccc3nccc(N4CCNCC4)c3c2)oc2ccc(Cl)cc12`: the Selectivity ratio in test [1] worked out at 200. Besides, the affinity in test [2], expressed as Ki, was 3.98 nM.
On to `Cc1c(S(=O)(=O)Nc2ccc3nccc(N4CCN5CCC[C@H]5C4)c3c2)sc2ccc(Cl)cc12`, for which the Selectivity ratio in [1] was determined as 130. Also, the affinity in test [2], expressed as Ki, was 2 nM.
Regarding `O=S(=O)(Nc1ccc2nccc(N3CCNCC3)c2c1)c1cccc2c(Cl)cccc12`, in [1], the Selectivity ratio is 80. In addition, in test [2], affinity was put at a Ki of 3.16 nM.
For the compound `Cc1c(S(=O)(=O)Nc2ccc3nccc(N4CCNCC4)c3c2)sc2ccc(Cl)cc12`, the Ki in test [3] is more than 2510 nM; at D(3) dopamine receptor it was more than 1580 nM; in [11], 2 nM; in test [2], 2 nM; in test [4] it was more than 2510 nM; in test [5] it was 631 nM. Besides, the Ki was more than 5010 nM in [6]; 1000 nM in [7]; 2000 nM in test [8]; more than 10000 nM on D(2) dopamine receptor; more than 7940 nM in [10]. Besides, the Selectivity ratio in [1] is 320.
`Cc1c(S(=O)(=O)Nc2ccc3nccc(N4C[C@@H](C)NC[C@@H]4C)c3c2)sc2ccc(Cl)cc12`: the affinity in [2] corresponds to a Ki of 31.6 nM.
Take `Cc1c(S(=O)(=O)Nc2ccc3nccc(N4CCNCC4)c3c2)sc2c(Cl)cc(Cl)cc12`: the Selectivity ratio in test [1] amounted to 25. Further, in [2], the affinity corresponds to a Ki of 6.31 nM.
In turn, `Cc1c(S(=O)(=O)Nc2ccc3ncc(N4CCN(C)CC4)cc3c2)sc2ccc(Cl)cc12` had a Ki in [2] of 79.4 nM.
The same measure, in the same setting: to `Cc1c(S(=O)(=O)Nc2ccc3nccc(N4CCN[C@H](C(C)C)C4)c3c2)sc2ccc(Cl)cc12` belongs 20 nM.
On to `O=S(=O)(Nc1ccc2nccc(N3CCNCC3)c2c1)c1ccc2c(Cl)cccc2c1`, for which the inhibitory constant (Ki) in test [3] is 1000 nM; at D(3) dopamine receptor it was 2510 nM; in [11], 1 nM; in test [2], 1 nM; in test [4], more than 2510 nM; in test [5] it was 200 nM. Moreover, the inhibitory constant (Ki) was more than 5010 nM in test [6]; 158 nM in test [7]; 631 nM in test [8]; more than 5010 nM at D(2) dopamine receptor; 2510 nM in test [10]. In addition, in [1], the Selectivity ratio stood at 160.
With `Cc1cnc2ccc(NS(=O)(=O)c3sc4ccc(Cl)cc4c3C)cc2c1N1CCNCC1`, the Selectivity ratio in test [1] came out at 100. Also, the Ki in [2] is 2.51 nM.
`Cc1c(S(=O)(=O)Nc2ccc3nccc(N4C[C@@H](C)N[C@@H](C)C4)c3c2)sc2ccc(Cl)cc12`: the Selectivity ratio in test [1] turned out to be 160. For the same compound, the Ki in test [2] is 5.01 nM.
As to `Cc1c(S(=O)(=O)Nc2ccc3nccc(N4CCN[C@@H](C)C4)c3c2)sc2ccc(Cl)cc12`, the Ki in [3] was more than 2510 nM; at D(3) dopamine receptor, more than 2000 nM; in test [11], 1.26 nM; in test [2], 1.26 nM; in test [4] it was more than 3980 nM; in test [5] it was 398 nM. Moreover, the inhibitory constant (Ki) in test [6] was more than 6310 nM; in test [7] it was 1000 nM; in test [8] it was 2510 nM; on D(2) dopamine receptor, more than 3160 nM; in test [10], more than 5010 nM. The Selectivity ratio in [1] was found to be 320.
In the case of `Cc1cc(S(=O)(=O)Nc2ccc3nccc(N4CCNCC4)c3c2)c(C)cc1Cl`, in [1], the Selectivity ratio amounted to 500. In addition, the Ki in [2] was 1.26 nM.
With `Cc1sc2ccc(Cl)cc2c1S(=O)(=O)Nc1ccc2nccc(N3CCNCC3)c2c1`, the inhibition constant Ki was more than 2000 nM in [3]; more than 1580 nM at D(3) dopamine receptor; 1 nM in test [11]; 1 nM in [2]; 1260 nM in [4]; 398 nM in [5]. Further, the inhibition constant Ki in [6] is 1260 nM; in [7], 251 nM; in test [8], 501 nM; at D(2) dopamine receptor, more than 3980 nM; in test [10] it was 1580 nM. Moreover, in test [1], the Selectivity ratio was 250.

Source of the values: ChEMBL document CHEMBL1134724, “Novel (4-piperazin-1-ylquinolin-6-yl) arylsulfonamides with high affinity and selectivity for the 5-HT(6) receptor” (Bioorg Med Chem Lett, 2001).
